Laboratory results published in patent US20060210479A1 (Dow Global Technologies Inc., priority 2004, published 2006).
Like-named read-outs stand apart in the source and are kept apart here.

Assays:
DU145 cells = conditions: for EuQCTME Cell Binding (fluorescence per well): 1 mM
LNCaP cell line = experiment: Chelate permeability: fluorescence of cytoplasm and membrane fractions; type: cell-based, human
SK-MES cells = conditions: 1 mM EuQCTME, up to 240 min
Description: (§1) Cells were counted and plated in a 20×100 mm cell culture dish at a density of about 2×10^6 cells.
(§2) After incubation cells were collected by trypsinization and gently centrifuged (about […]) for 10 minutes. The cell supematant was discarded, and the resulting cell pellet was washed in cold PBS (phosphate buffered saline). The cell pellet was centrifuged again (about 2000 rpm) for 10 minutes. The PBS supernatant was discarded and the cold PBS wash was repeated and centrifuged as above. After discarding the PBS supernatant, the resulting cell pellet was used for NE-PER extraction (Pierce, Rockford, Ill.) according to the manufacturer's instructions.
(§3) The resulting nuclear and cytoplasmic fractions from each time point were then placed into the wells of a 96-well white plate. Due to the volume of lysate available for measurement, the fractions were diluted 1:4 in HEPES binding buffer for a total volume of 100 liL. […] The following settings were optimized for measurement: excitation at 320 nm (band width: 35 nm), emission at 595 nm (bandwidth: 35 nm), gain 110, lag time 1 μs, integration time 2000 μs, # of flashes: 1.
(§4) Because lysate volume was in limited quantity and protein concentration was relatively low, absorbances for protein measurements were read using the formula of Kalckar (1.45 OD280-0.74OD260=mg protein/mL). Each time point measurement above (in RFU) was normalized to its corresponding protein content and recalculated as RFU/μg protein.

Caco-2 cells [1] = conditions: 1 mM EuQCTME, up to 240 min
Description: as §1, §2, §3, §4

C33-A cells [2] = conditions: 1 mM EuQCTME, up to 240 min
Description: as §1, §2, §3, §4

NCM460 cells [3] = conditions: 1 mM EuQCTME, up to 240 min
Description: as §1, §2, §3, §4

DU-145 cells = conditions: 1 mM EuQCTME, up to 240 min
Description: as §1, §2, §3, §4

HLAC cells = conditions: 1 mM EuQCTME, up to 240 min
Description: as §1, §2, §3, §4

T84 cell line = experiment: Chelate permeability: fluorescence of cytoplasm and membrane fractions; type: cell-based, human; conditions: 1 mM chelate, 2 h, Table 4
[4] = system: PZ-HPV-7 normal cell line; experiment: as above; type: cell-based
RBL-2H3 cell line = experiment: as above; type: cell-based, rat
Description: Tb-PCTMB (Tb(III) 3,6,9-tris(methylene phosphonic acid n-butyl ester)-3,6,9,15-tetraazabicyclo[9.3.1]pentadeca-1(15),11,13-triene) was tested for permeability to abnormal and disease-state cells.
RBL-2H3 is a rat basophilic leukemia cell line. These cells were grown in Iscove's Medium supplemented with 2 mM L-glutamnine, penicillin/streptomycin (100 IU/mL, 100 μg/mL) and 10% FBS. Cells were maintained at 5% CO2 and 95% humidity. PZ-HPV-7 cell line was derived from epithelial cells cultured from normal prostate tissue. They were grown in Keratinocyte-Serum Free Medium with human recombinant EGF and bovine pituitary extract supplemented with 50 μg/mL gentamicin and penicillin/streptomycin (100 IU/mL, 100 μg/mL). All media and supplements were purchased from Gibco BRL (Grand Island, N.Y., USA). All cell lines were obtained from ATCC and were maintained at 37° C., 5% CO2 and 95% humidity.
Cells were grown to confluence in T-150 flasks (about 2×10^6 cells). […] Cells were then removed from the flask by manual scraping. Cells were transferred to a 50-mL conical tube and centrifuged (400×g) for 5 minutes and the test material removed.
Cells were grown as described herein (Example 1). Cells were grown to confluence in T-150 flask (about 2×10^6 cells). […] Cells were then removed from the flask by manual scraping. Cells were transferred to a 50-mL conical tube and centrifuged (400×g) for 5 minutes and the test material removed.
Furthermore, one analogue, QCTMP (FIG. 26), having lesser lipophilic character (a free phosphonic acid moiety) was evaluated. […] In this study, the cytoplasm and membrane fractions were extracted by Mem-PER Eukaryotic Membrane Protein Extraction Reagent Kit as described by the manufacturers (Pierce Biotechnology, Rockford, Ill.) and analyzed by a Fluor-S Multilmager.

Caco-2 cells [5] = conditions: 1 mM, 1 h
Description: (§5) Before images were captured, an aliquot of the HEPES binding buffer was mounted on a slide and observed for any background fluorescence.

NCM460 cells [6] = conditions: 1 mM, 1 h
Description: as §5

[7] = system: normal cheek pouch tissue; conditions: 2 mM solution topical, 10 minutes, readings Adjusted Volume CNT*mm2
C33-A cells [8] = conditions: for EuQCTME Cell Binding (fluorescence per well): 1 mM
[9] = 0-2000 μM, 2 hours, compared to PZ-HPV-7
[10] = PZ-HVP-7, 1 mM chelate, 2 h, Table 4

## CCOP(=O)([O-])CN1CCN(Cc2ccc3cc(C)ccc3n2)CCN(CP(=O)([O-])OCC)CCN(CP(=O)([O-])OCC)CC1.[Eu+3] [Eu-QCTME, Eu(III) N-(6-methyl-2-quinolylmethyl)-N′,N″,N′″-tris(methylenephosphonic acid ethyl ester)-1,4,7,10-tetraazacyclododecane]
DU145 cells; 2 min
  EuQCTME Cell Binding (fluorescence per well): 27,884
DU145 cells; 5 min
  EuQCTME Cell Binding (fluorescence per well): 10,040
DU145 cells; 15 min
  EuQCTME Cell Binding (fluorescence per well): 747
DU145 cells; 30 min
  EuQCTME Cell Binding (fluorescence per well): 19,868
DU145 cells; 45 min
  EuQCTME Cell Binding (fluorescence per well): 10,987
DU145 cells; 60 min
  EuQCTME Cell Binding (fluorescence per well): 3,235
DU145 cells; 120 min
  EuQCTME Cell Binding (fluorescence per well): 15,644
DU145 cells; 180 min
  EuQCTME Cell Binding (fluorescence per well): 9,038
DU145 cells; 240 min
  EuQCTME Cell Binding (fluorescence per well): 2,506
DU145 cells; over 240 min
  Totals: Normalized total area under each curve (AUC): 49
LNCaP cell line; [9]
  fluorescence in the cytoplasm, dose response: significant increases in fluorescence
LNCaP cell line; 1 mM chelate, 2 h, Table 4
  Fluorescence/mg Cytoplasm: 3881
  Fluorescence/mg Membrane: 2561
SK-MES cells
  nuclear and cytoplasmic fluorescence: approximately 40 pg EuQCTME per μg protein
Caco-2 cells [1]
  nuclear and cytoplasmic fluorescence: approximately 40 pg EuQCTME per μg protein
C33-A cells [2]
  nuclear signal: very low
NCM460 cells [3]
  cytoplasm-associated fluorescence: < 10 pg EuQCTME per μg protein
  nuclear signal: high nuclear signal
DU-145 cells
  nuclear and cytoplasmic fluorescence: approximately 40 pg EuQCTME per μg protein
HLAC cells
  nuclear signal: rapidly declined after an apparent initial burst
T84 cell line
  Fluorescence/mg Cytoplasm: 4548
  Fluorescence/mg Membrane: 2307
[4]; PZ-HPV-7
  detectability in normal cells: significantly less detectable
[4]; [10]
  Fluorescence/mg Cytoplasm: 2247
  Fluorescence/mg Membrane: 2293
RBL-2H3 cell line; 0-2000 μM, 2 hours
  fluorescence in the membrane fractions, dose response: detectable quantity of fluorescence
RBL-2H3 cell line; [9]
  fluorescence in the cytoplasm, dose response: significant increases in fluorescence
RBL-2H3 cell line; 1 mM chelate, 2 h, Table 4
  Fluorescence/mg Cytoplasm: 4415
  Fluorescence/mg Membrane: 2644
Caco-2 cells [5]
  localization by confocal microscopy: predominantly cytoplasmic localization
NCM460 cells [6]
  uptake by confocal microscopy: only a minimal uptake
[7]; Normal 1
  Fluorescence/mg Cytoplasm: 1344
  Fluorescence/mg Membrane: 1348
[7]; Normal 2
  Fluorescence/mg Cytoplasm: 1369
  Fluorescence/mg Membrane: 1374
C33-A cells [8]; 2 min
  EuQCTME Cell Binding (fluorescence per well): 2,967
C33-A cells [8]; 5 min
  EuQCTME Cell Binding (fluorescence per well): 22,763
C33-A cells [8]; 15 min
  EuQCTME Cell Binding (fluorescence per well): 5,075
C33-A cells [8]; 30 min
  EuQCTME Cell Binding (fluorescence per well): 2,923
C33-A cells [8]; 45 min
  EuQCTME Cell Binding (fluorescence per well): 7,030
C33-A cells [8]; 60 min
  EuQCTME Cell Binding (fluorescence per well): 583
C33-A cells [8]; 120 min
  EuQCTME Cell Binding (fluorescence per well): 1,275
C33-A cells [8]; 180 min
  EuQCTME Cell Binding (fluorescence per well): 2,377
C33-A cells [8]; 240 min
  EuQCTME Cell Binding (fluorescence per well): 1,322
C33-A cells [8]; over 240 min
  Totals: Normalized total area under each curve (AUC): 9
